Data: ChEMBL document CHEMBL5154691, “Discovery of novel verinurad analogs as dual inhibitors of URAT1 and GLUT9 with improved Druggability for the treatment of hyperuricemia” (Eur J Med Chem, 2022)

Experiments:
[1] = Cmax in Sprague-Dawley rat at 5 mg/kg, po measured upto 36 hrs by LC-MS/MS analysis; assay type: ADME, organism-based; design: time < 36 hrs, dose 5 mg/kg, route po; conditions: in vivo
[2] = biological target: T1, Solute carrier family 22 member 12 (Homo sapiens, UniProt Q96S37); experiment: Inhibition of URAT1 (unknown origin)-mediated 14C-uric acid uptake expressed in HEK293 cells using 14C-uric acid as substrate preincubated for 30 mins followed by substrate addition and measured after 15 mins by liquid scintillation counting analysis; assay type: cell-based
T1 sequence (Q96S37 whole entry): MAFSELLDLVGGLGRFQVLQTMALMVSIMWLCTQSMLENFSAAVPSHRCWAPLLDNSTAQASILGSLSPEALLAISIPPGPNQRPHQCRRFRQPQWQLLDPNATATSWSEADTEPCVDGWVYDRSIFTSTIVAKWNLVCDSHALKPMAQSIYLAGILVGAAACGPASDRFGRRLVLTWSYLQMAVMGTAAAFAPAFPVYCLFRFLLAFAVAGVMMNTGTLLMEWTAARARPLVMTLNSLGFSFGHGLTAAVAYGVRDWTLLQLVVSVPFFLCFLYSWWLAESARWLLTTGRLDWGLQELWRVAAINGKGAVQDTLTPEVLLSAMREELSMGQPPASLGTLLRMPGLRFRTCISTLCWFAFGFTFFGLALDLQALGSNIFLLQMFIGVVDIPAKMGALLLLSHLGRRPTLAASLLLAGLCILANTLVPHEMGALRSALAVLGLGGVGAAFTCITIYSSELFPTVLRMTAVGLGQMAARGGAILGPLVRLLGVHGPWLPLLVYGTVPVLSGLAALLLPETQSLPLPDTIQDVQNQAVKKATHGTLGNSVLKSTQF

Mus musculus [3] = experiment: Anti-hyperuricemic activity against xanthine and potassium oxonate-induced acute hyperuricemia Kunming mouse model assessed as serum uric acid concentration at 10 mg/kg, po measured after 3 hrs (reference value: 846.22 uM); assay type: functional
[4] = AUC (0 to infinity) in Sprague-Dawley rat at 5 mg/kg, iv by LC-MS/MS analysis; assay type: ADME, organism-based; design: time infinity, dose 5 mg/kg, route iv; conditions: in vivo
[5] = MRT (0 to infinity) in Sprague-Dawley rat at 5 mg/kg, iv by LC-MS/MS analysis; assay type: ADME, organism-based; conditions: in vivo
[6] = Renal toxicity in xanthine and potassium oxonate-induced acute hyperuricemia Kunming mouse model assessed as serum creatinine level at 10 mg/kg, po measured after 3 hrs; assay type: organism-based; conditions: in vivo
[7] = biological target: T2, Solute carrier family 22 member 6 (Homo sapiens, UniProt Q4U2R8); experiment: Inhibition of OAT1 (unknown origin) expressed in HEK293 cells assessed as inhibition of 6-CFL uptake preincubated for 30 mins followed by incubation with 6-CFL and measured after 15 mins by fluorescence based analysis; assay type: toxicity, cell-based
T2 sequence (Q4U2R8 whole entry): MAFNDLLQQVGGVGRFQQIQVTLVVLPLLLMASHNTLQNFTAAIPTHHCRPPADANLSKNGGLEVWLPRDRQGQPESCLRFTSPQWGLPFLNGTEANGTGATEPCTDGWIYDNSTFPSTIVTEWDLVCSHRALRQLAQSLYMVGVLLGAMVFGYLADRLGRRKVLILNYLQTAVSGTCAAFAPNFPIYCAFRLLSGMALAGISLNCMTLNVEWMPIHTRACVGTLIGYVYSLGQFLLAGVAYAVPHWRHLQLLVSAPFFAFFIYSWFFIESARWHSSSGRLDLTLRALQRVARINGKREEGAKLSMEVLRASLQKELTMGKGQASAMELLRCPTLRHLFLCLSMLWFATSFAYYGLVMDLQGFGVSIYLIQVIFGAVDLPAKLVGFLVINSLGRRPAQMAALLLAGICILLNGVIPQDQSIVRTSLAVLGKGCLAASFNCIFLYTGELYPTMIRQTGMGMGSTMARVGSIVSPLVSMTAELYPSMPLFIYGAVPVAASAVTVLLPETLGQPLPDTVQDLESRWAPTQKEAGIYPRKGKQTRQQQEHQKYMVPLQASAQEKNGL

Mus musculus [8] = experiment: Anti-hyperuricemic activity against xanthine and potassium oxonate-induced acute hyperuricemia Kunming mouse model assessed as increase in urine uric acid concentration at 10 mg/kg, po measured for 24 hrs; assay type: functional
[9] = Inhibition of URAT1 S35N mutant (unknown origin)-mediated 14C-uric acid uptake expressed in HEK293 cells using 14C-uric acid as substrate preincubated for 30 mins followed by substrate addition and measured after 15 mins by liquid scintillation counting analysis; assay type: cell-based; conditions: Homo sapiens
[10] = biological target: T3, Solute carrier family 2, facilitated glucose transporter member 9 (Homo sapiens) (UniProt Q9NRM0); experiment: Inhibition of GLUT9 (unknown origin) expressed in HEK293T cells assessed as inhibition of uric acid-induced current at 10 uM by whole cell patch clamp technique; assay type: cell-based
T3 sequence (whole entry): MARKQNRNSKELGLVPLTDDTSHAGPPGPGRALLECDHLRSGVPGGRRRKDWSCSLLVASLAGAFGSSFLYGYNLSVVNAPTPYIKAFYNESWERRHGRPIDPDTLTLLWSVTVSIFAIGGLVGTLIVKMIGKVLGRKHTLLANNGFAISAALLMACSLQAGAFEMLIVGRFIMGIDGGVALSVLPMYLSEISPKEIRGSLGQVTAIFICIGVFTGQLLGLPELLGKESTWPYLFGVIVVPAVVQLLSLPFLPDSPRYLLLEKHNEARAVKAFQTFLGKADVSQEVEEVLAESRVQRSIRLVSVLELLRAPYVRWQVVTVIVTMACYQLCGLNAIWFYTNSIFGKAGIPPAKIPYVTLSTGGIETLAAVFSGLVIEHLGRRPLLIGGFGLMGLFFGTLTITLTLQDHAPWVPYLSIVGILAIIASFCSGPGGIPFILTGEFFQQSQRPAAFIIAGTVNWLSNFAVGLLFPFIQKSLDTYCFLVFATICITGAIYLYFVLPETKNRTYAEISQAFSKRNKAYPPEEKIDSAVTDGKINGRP

[11] = Inhibition of URAT1 F358Y mutant (unknown origin)-mediated 14C-uric acid uptake expressed in HEK293 cells using 14C-uric acid as substrate preincubated for 30 mins followed by substrate addition and measured after 15 mins by liquid scintillation counting analysis; assay type: cell-based; conditions: Homo sapiens
[12] = biological target: T4, Solute carrier family 2, facilitated glucose transporter member 9 (Homo sapiens, UniProt Q9NRM0); experiment: Inhibition of GLUT9 (unknown origin) expressed in HEK293T cells assessed as inhibition of uric acid-induced current by whole cell patch clamp technique; assay type: cell-based
T4 sequence (Q9NRM0 whole entry): T3 sequence (whole entry)

[13] = MRT (0 to infinity) in Sprague-Dawley rat at 5 mg/kg, po by LC-MS/MS analysis; assay type: ADME, organism-based; conditions: in vivo
[14] = Oral bioavailability in Sprague-Dawley rat at 5 mg/kg measured upto 36 hrs by LC-MS/MS analysis; assay type: ADME, organism-based; conditions: in vivo
[15] = Cytotoxicity against human HK-2 cells assessed as reduction in cell viability incubated for 48 hrs by MTT assay; assay type: toxicity, cell-based
[16] = Renal toxicity in xanthine and potassium oxonate-induced acute hyperuricemia Kunming mouse model assessed as blood urea nitrogen level at 10 mg/kg, po measured after 3 hrs; assay type: organism-based; conditions: in vivo
[17] = Half life in Sprague-Dawley rat at 5 mg/kg, iv measured upto 36 hrs by LC-MS/MS analysis; assay type: ADME, organism-based; conditions: in vivo
[18] = Inhibition of URAT1 R487K mutant (unknown origin)-mediated 14C-uric acid uptake expressed in HEK293 cells using 14C-uric acid as substrate preincubated for 30 mins followed by substrate addition and measured after 15 mins by liquid scintillation counting analysis; assay type: cell-based; conditions: Homo sapiens

N#Cc1ccc(Nc2cnccc2SCc2ccccc2C(=O)[O-])c2ccccc12.[Na+]
Cmax [1]: 7650 ng/mL | IC50 [2]: 0.24 µM | Activity (Mus musculus [3]): 645.8 µM | AUC(0-inf) [4]: 18500 ng·h/mL | MRT inf [5]: 4.8 h | Activity [6]: Non-Toxic | IC50 [7]: 32.1 µM | Activity (Mus musculus [8]): 2444.24 µM | IC50 [9]: 3.14 µM | inhibition [10]: 51% | IC50 [11]: 0.78 µM | IC50 [12]: 9.37 µM | MRT inf [13]: 3.17 h | bioavailability [14]: 30.1% | IC50 at 48 h [15]: 167 µM | Activity [16]: Non-Toxic | half-life [17]: 4.19 h | IC50 [18]: 1.89 µM
